Source: patent publication US11542508B2, “Isolated polynucleotides and polypeptides and methods of using same for expressing an expression product of interest” (priority 2016, dated 2023)

How the values were obtained:
Type in all cases: cell-based
[1] = target: AimR (Bacillus phage phi3T, UniProt P0DOE3); assay: ChIP-seq of His-tagged AimR on phage DNA; settings: 15 minutes after phage infection, with or without 1 μM peptide
Experimental: For the ChIP-seq experiments, B. subtilis cell cultures were grown in 100 ml to O.D of 0.1 in LB at 37° C. Following, 50 ml of culture was centrifuged at 4000 rpm for 10 minutes at room temperature. The pellets were then suspended with 25 ml LB either containing or lacking the peptide (SAIRGA, SEQ ID NO: 269) at a final concentration of 1 μM. The cultures were placed for an additional incubation hour at room temperature with shaking. The cultures were then infected with phage (MOI=0.5) having a final plaque forming units (PFU) of 5×10^7 PFU/ml phages. 15 minutes post phage infection the cultures were centrifuged at 3000 g for 5 minutes at 4° C. The supernatant was discarded and the pellets were resuspended with 1 ml of ice-cold 1×PBS (10 mM Phosphate, 137 mM NaCl, 2.7 mM KCl, pH of 7.4).
For the formaldehyde fixation of protein to DNA, the 1 ml PBS resuspended pellets were mixed with 62.5 μl formaldehyde (Thermoscientific 16% formaldehyde solution (w/v) methanol-free ampule) yielding a final formaldehyde concentration of 1% (w/v) within the solution. The formaldehyde-containing cell suspension was incubated at room temperature for 10 minutes with mild agitation. Following, 75 μl 2M Glycine (f.c. 150 mM) was added to quench residual formaldehyde. Glycine-containing samples were kept on ice for an additional 10 minutes followed by centrifugation at 5500 g for 1 minute at 4° C. […]

[2] = system: Bacillus subtilis BEST7003 containing Construct #1; assay: GFP reporter expression, Construct #1; settings: Construct #1, peptide 62.5 nM-1000 nM in LB
Experimental: Starter growths of wild type (WT) Bacillus subtilis BEST7003 strain and of Bacillus subtilis BEST7003 strains containing Construct #1 or Construct #2 were cultured in 3 ml Luria-Bertani (LB) broth until the growth curve indicated stationary phase. Following, the bacterial cells were diluted in a ratio of 1/100 in LB broth or LB broth supplemented with a SAIRGA (SEQ ID NO: 269) peptide at a concentration range of 62.5 nM-1000 nM. Optical density (O.D. at 600 nm) and GFP fluorescence levels (488 nm excitation/518 nm emission) were measured over time in a 96 wells plate using a TECAN Infinite 200 plate reader.

[3] = system: aimX; assay: RNA-seq / differential expression analysis during phi3T infection; settings: medium supplemented by 1 μM peptide
Experimental: To determine the difference in gene expression with and without the peptide, bacteria were incubated for 1 hour in LB medium supplemented with 0.1 mM MnCl2 and 5 mM MgCl2 in the presence or absence of 1 μM synthesized SAIRGA (SEQ ID NO: 269) peptide. Following, the bacteria were infected with phi3T (MOI=0.1); and cell pellets were collected at 0, 5, 10 and 20 minutes post infection.
RNA extraction and RNA-seq was performed as described in Dar et al.^33. Briefly, pellets were lysed using the Fastprep homogenizer (MP Biomedicals, Santa Ana, Calif.) and RNA was extracted with the FastRNA PRO blue kit (MP Biomedicals, 116025050) according to manufacturer's instructions. […]
RNA-seq libraries were sequenced using the Illumina NextSeq500 platform. Sequenced reads were demultiplexed and adapters were trimmed using fastx_clipper with default parameters. Reads were mapped to the reference genomes (gene annotation and sequences were downloaded from Genbank: NC_000964 for Bacillus subtilis str. 168, AP012496 for Bacillus subtilis BEST7003) using NovoAlign (Novocraft) V3.02.02 with default parameters. […]
Reads per gene were calculated for each biological replicate at 20 minutes post infection with and without the synthetic peptide and normalized relative to the total mapped reads hitting the phage genome in each replicate. […]

AimR, sequence (P0DOE3 whole entry): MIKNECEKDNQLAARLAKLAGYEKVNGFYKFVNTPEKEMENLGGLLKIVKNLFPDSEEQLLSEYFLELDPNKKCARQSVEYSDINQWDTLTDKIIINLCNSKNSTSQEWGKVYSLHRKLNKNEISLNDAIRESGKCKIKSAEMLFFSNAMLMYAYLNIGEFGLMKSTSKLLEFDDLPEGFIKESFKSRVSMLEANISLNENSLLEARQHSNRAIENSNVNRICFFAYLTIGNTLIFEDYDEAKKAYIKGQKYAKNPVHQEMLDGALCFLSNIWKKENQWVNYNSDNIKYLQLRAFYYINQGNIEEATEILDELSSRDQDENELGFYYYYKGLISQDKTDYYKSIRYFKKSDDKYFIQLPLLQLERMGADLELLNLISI

## CC[C@H](C)[C@H](NC(=O)[C@H](C)NC(=O)[C@@H](N)CO)C(=O)N[C@@H](CCCNC(=N)N)C(=O)NCC(=O)N[C@@H](C)C(=O)O [SAIRGA, Ser-Ala-Ile-Arg-Gly-Ala]
[1]
  binding of AimR to its site in the phage genome (ChIP-seq): this binding only occurred when the arbitrium peptide was absent
[2]
  GFP fluorescence in presence of peptide: fluorescence gradually repressed in a manner proportional to the concentration of the peptide
[3]
  reduction of aimX expression: more than 20 fold
